# Data published in patent publication US20050170015A1 (priority 2000, published 2005).
# Read-outs that look alike come from different tables or passages of the source.
# What was measured:
# [1] = test system: murine fibrosarcomas (RIF-1 cells)
# From the text: In each Example, the tumors were followed until they reached a size of four times their day zero treatment volume (TVQT), or up to 30 days after treatment, whichever came first. The data is expressed as the “tumor volume quadrupling time” (TVQT) mean and as the “delay.” Mean TVQT is the mean days required for individual tumors to grow to four times the tumor volume at the initial treatment day. […] The data is also expressed as the ratio of the tumor volume quadrupling time of the treated tumor over the untreated control group (TVQT/CTVQT). Increasing values of this ratio indicate increased antitumor response.
# [2] = test system: RIF-1 murine fibrosarcoma; assay: RIF-1 tumor growth delay, thiocolchicine alone and with cisplatin, camptothecin or amonafide (Example 6); format: in vivo, C3H mice; conditions: Ex# E047
# Procedure: Cisplatin for Injection, USP, was obtained as the commercial product from Bristol Laboratories (Platinol®, Lot No. K1F26A). Camptothecin was obtained from Boehinger-Ingelheim Lot 142088. Amonafide dihydrochloride was prepared in house, in a solution of 20 mg/ml. 0.9% Sodium Chloride for Injection, USP (saline) was manufactured by Abbott Laboratories (Lot No. 55-199-DK). Sterile Water for Injection, USP (WFI) was manufactured by Lyphomed, Inc. (Lot No. 390849). DMSO was obtained from Sigma (St. Louis, Mo.). DMF (dimethylformamide) was obtained from Sigma (St. Louis, Mo.). PEG400 was obtained from Sigma (St. Louis, Mo.).
# For preparation of cisplatin formulation, the contents of a 10-mg vial of lyophilized CDDP (Cisplatin for Injection) was resuspended with 10 mL WFI to produce a 1 mg/mL CDDP suspension.
# Camptothecin was prepared in a solution of DMSO at 0.75 mg/ml.
# This was further diluted using saline to […].
# Amonafide was diluted to 15 mg/ml with saline.
# Food and water were available ad libitum.
# Tumors: The RIF-1 murine fibrosarcoma cell line was maintained in in vitro culture (Wayrnouth medium supplemented with 20% fetal bovine serum) at 37° C. in a humidified 5% CO2 incubator. Log-phase RIF-1 cells were trypsinized and harvested from cell culture flasks to yield a concentration of 4×10^6 cells/mL, then injected intradermally in a volume of 50 μL (equivalent to 2×10^5 cells per injection) into both flanks of each mouse. Nine days later, when tumors reached approximately 100 mm^3 in size, the animals were randomized to different treatment groups.
# Evaluation of Tumor Growth Delay: Tumors were measured three times weekly for up to 22 days with Vernier calipers. Tumor volume (cubic millimeters, mm^3) was calculated according to the formula: [formula] in which D1-3 are perpendicular diameters measured in millimeters (mm). Tumor volume quadrupling time (TVQT), defined as the time required for a tumor to grow to four times (4×) its initial volume (at the time of treatment), was used as a study endpoint.
# The TVQT was determined for each treatment group and expressed in days as the mean±standard error (SE).
# [3] = test system: murine fibrosarcomas (RIF-1 cells); format: in vivo, C3H mice
# Procedure: (§1) For the examples below, transplantable experimental murine fibrosarcomas (2×10^5 RIF-1 cells) were grown intradermally in the flank s of 3 month old female C3H mice (Charles River, Holister, Calif.). When the tumors reached a volume of approximately 100 mm^3, the mice were randomly assigned to each experimental group (4 mice per group).
# (§2) Colchicine was obtained from Sigma-Aldrich (St. Louis, Mo.) and was made to the appropriate concentration in water for injection. After the treatments described below, the growth of the tumors was monitored three times per week by caliper measurements of three perpendicular diameters of the tumor. The tumor volume was calculated from the formula: V=π/6×D1×D2×D3, where D1-3 are the diameter measurements in mm.
# (§3) In each Example, the tumors were followed until they reached a size of four times their day zero treatment volume (TVQT), or up to 30 days after treatment, whichever came first. The data is expressed as the “tumor volume quadrupling time” (TVQT) mean and as the “delay.” Mean TVQT is the mean days required for individual tumors to grow to four times the tumor volume at the initial treatment day. The “delay” is the median of days required for a tumor to grow to four times the mean size of the treated group, minus the median of days required to grow to four times the mean size of the control group. The data is also expressed as the ratio of the tumor volume quadrupling time of the treated tumor over the untreated control group (TVQT/CTVQT). Increasing values of this ratio indicate increased antitumor response.
# Paclitaxel was obtained prediluted at 1 mg/ml in a cremaphor/ethanol solution. Colchicine was given at a dose of 2 mg/kg and paclitaxel was given, for each injection, at a dose of 10 mg/kg. For group 4, a total of three paclitaxel injections were given, one each on days 0, 3 and 5. The compositions were injected systemically (i.e., intraperitoneally, i.p.), in a volume of 100 μl.
# [4] = test system: murine fibrosarcomas (RIF-1 cells); assay: RIF-1 tumor growth delay, single or multiple colchicine doses in mixed sequence with camptothecin (Example 2B); format: in vivo, C3H mice
# Procedure: as §1, §2, §3
# In FIG. 5, the arrow indicates a one hour interval separating treatment with each agent. The experimental compositions were prepared as described above. In two treatment groups, colchicine was administered orally in three doses (“colch×3” or “colchicine×3”). When three dosages of colchicine were administered, the first was given one hour after the administration of camptothecin (day 0), the second on day 1 and the third on day 2.
# [5] = test system: murine fibrosarcomas (RIF-1 cells); assay: RIF-1 tumor growth delay, single-dose colchicine with camptothecin (Example 2A); format: in vivo, C3H mice
# Procedure: as §1, §2, §3
# A. Effect of Single Doses of Colchicine Administered Concurrently with Camptothecin Camptothecin (Boehringer Ingelheim-Lot 71012) was made to the appropriate concentration in DMSO. Colchicine was given orally in a volume of 100 μl. Camptothecin was injected systemically (i.e., intraperitoneally, i.p.), in a volume of 100 μl. For the treatment of group 3, colchicine was given orally immediately prior to the intraperitoneal injection of camptothecin. The experimental compositions were prepared as described in Table 4.
# [6] = test system: murine fibrosarcomas (RIF-1 cells); format: in vivo, C3H mice; remark: listed apart in the source
# Procedure: as §1, §2, §3
# Etoposide (Sigma-Aldrich, lot. 46H078) was made to the appropriate concentration in DMSO. Etoposide and colchicine were injected systemically (i.e., intraperitoneally, i.p.), in a volume of 100 μl. The experimental compositions were prepared as described in Table 2.
# [7] = test system: murine fibrosarcomas (RIF-1 cells); format: in vivo, C3H mice; remark: listed apart in the source
# Procedure: as §1, §2, §3
# Cisplatin (David Bull Laboratories—Mulgrave, Australia, lot. 5201844x) was made to the appropriate concentration in water for injection. Colchicine was given orally in a volume of 100 μl. Cisplatin was injected systemically (i.e., intraperitoneally, i.p.), in a volume of 100 μl. For the treatment of group 3, colchicine was given orally immediately prior to the intraperitoneal injection of cisplatin. The experimental compositions were prepared as described in Table 7.
# [8] = vinblastine 1 mg/kg i.p., 3× (days 0, 3, 6)
# [9] = vinblastine 1 mg/kg i.p., 4× (days 0, 3, 6, 8)
# [10] = paclitaxel 10 mg/kg i.p., 3× (days 0, 3, 5)
# [11] = paclitaxel 10 mg/kg i.p., given once
# [12] = colchicine 10 mg/kg oral × 3 (days 0, 1, 2)
# [13] = colchicine 10 mg/kg oral, single dose
# [14] = colchicine 2 mg/kg i.p. (Table 11: 1 mg/kg)
smiles,measurement,setting,value
CC[C@]1(O)C[C@@H]2CN(CCc3c([nH]c4ccccc34)[C@@](C(=O)OC)(c3cc4c(cc3OC)N(C)[C@H]3[C@@](O)(C(=O)OC)[C@H](OC(C)=O)[C@]5(CC)C=CCN6CC[C@]43[C@@H]65)C2)C1 [Vinblastine],Tumor growth delay curve when vinblastine was given after colchicine,"[1]; group 7: vinblastine days 0, 3, colchicine day 6, vinblastine day 8",renewed sensitivity to vinblastine
same,Delay,"[1]; vinblastine 1 mg/kg i.p., 1×",0.11 days
same,Mean TVQT ± S.E.,"[1]; vinblastine 1 mg/kg i.p., 1×",6.6 ± 0.4 days
same,Median (TVQT),"[1]; vinblastine 1 mg/kg i.p., 1×",6.2 days
same,TVQT/CTVQT,"[1]; vinblastine 1 mg/kg i.p., 1×",1.0
same,Mean TVQT ± S.E.,[1]; [8],8.9 ± 0.9 days
same,Median (TVQT),[1]; [8],7.8 days
same,TVQT/CTVQT,[1]; [8],1.4
same,Mean TVQT ± S.E.,[1]; [9],8.4 ± .06 days
same,Median (TVQT),[1]; [9],8.6 days
same,TVQT/CTVQT,[1]; [9],1.2
CN(C)CCN1C(=O)c2cccc3cc(N)cc(c23)C1=O [Amonafide],Days to 4× (ave ± SE),[2]; amonafide IP 60 mg/kg,9.8 ± 0.6 days
same,Days to 4× Median,[2]; amonafide IP 60 mg/kg,10.1 days
same,Delay,[2]; amonafide IP 60 mg/kg,2.55 days
same,T/C,[2]; amonafide IP 60 mg/kg,1.3
CC(=O)O[C@H]1C(=O)[C@@]2(C)[C@H]([C@H](OC(=O)c3ccccc3)[C@]3(O)C[C@H](OC(=O)[C@H](O)[C@@H](NC(=O)c4ccccc4)c4ccccc4)C(C)=C1C3(C)C)[C@]1(OC(C)=O)CO[C@@H]1C[C@@H]2O [Paclitaxel],Effectiveness of paclitaxel given 3 times versus once,"[3]; RIF-1 model, paclitaxel 10 mg/kg i.p.",slightly more effective
same,Delay,[3]; [10],1.59 days
same,Mean TVQT ± S.E.,[3]; [10],10.8 ± 1.9 days
same,Median (TVQT),[3]; [10],9.0 days
same,TVQT/CTVQT,[3]; [10],1.4
same,Delay,[3]; [11],0.67 days
same,Mean TVQT ± S.E.,[3]; [11],9.1 ± 0.7 days
same,Median (TVQT),[3]; [11],8.1 days
same,TVQT/CTVQT,[3]; [11],1.2
"CC[C@@]1(O)C(=O)OCc2c1cc1n(c2=O)Cc2cc3ccccc3nc2-1 [Camptothecin, camptothecin]",Days to 4× (Ave ± SE),[4]; CPT 6 mg/kg IP,12.9 ± 0.5 days
same,Delay,[4]; CPT 6 mg/kg IP,5.45 days
same,Median,[4]; CPT 6 mg/kg IP,12.8 days
same,T/C,[4]; CPT 6 mg/kg IP,1.7
same,Delay,[5]; camptothecin 6 mg/kg i.p.,3.60 days
same,Mean TVQT ± S.E.,[5]; camptothecin 6 mg/kg i.p.,9.4 ± 0.5 days
same,Median (TVQT),[5]; camptothecin 6 mg/kg i.p.,9.9 days
same,TVQT/CTVQT,[5]; camptothecin 6 mg/kg i.p.,1.5
same,Days to 4× (ave ± SE),[2]; camptothecin IP 3 mg/kg,8.26 ± 0.46 days
same,Days to 4× Median,[2]; camptothecin IP 3 mg/kg,8.27 days
same,Delay,[2]; camptothecin IP 3 mg/kg,0.71 days
same,T/C,[2]; camptothecin IP 3 mg/kg,1.1
COc1cc([C@@H]2c3cc4c(cc3[C@@H](O[C@@H]3O[C@@H]5CO[C@@H](C)O[C@H]5[C@H](O)[C@H]3O)[C@H]3COC(=O)[C@H]23)OCO4)cc(OC)c1O [Etoposide],Delay,[6]; etoposide 10 mg/kg i.p.,-0.17 days
same,Mean TVQT ± S.E.,[6]; etoposide 10 mg/kg i.p.,7.7 ± 0.5 days
same,Median (TVQT),[6]; etoposide 10 mg/kg i.p.,7.5 days
same,TVQT/CTVQT,[6]; etoposide 10 mg/kg i.p.,1.0
"N.N.[Cl][Pt][Cl] [Cisplatin, cis-diamminedichloroplatinum II]",Days to 4× (ave ± SE),[2]; CDDP IP 4 mg/kg,9.44 ± 0.42 days
same,Days to 4× Median,[2]; CDDP IP 4 mg/kg,9.22 days
same,Delay,[2]; CDDP IP 4 mg/kg,1.66 days
same,T/C,[2]; CDDP IP 4 mg/kg,1.2
same,Delay,[7]; cisplatin 4 mg/kg i.p.,1.45 days
same,Median (TGD),[7]; cisplatin 4 mg/kg i.p.,7.7 days
same,TGD ± S.E.,[7]; cisplatin 4 mg/kg i.p.,7.4 ± 0.3 days
same,TGD/CTGD,[7]; cisplatin 4 mg/kg i.p.,1.2
"COc1cc2c(c(OC)c1OC)-c1ccc(OC)c(=O)cc1[C@@H](NC(C)=O)CC2 [Colchicine, (S)-N-(5,6,7,9-tetrahydro-1,2,3,10-tetramethoxy-9-oxobenzo[a]heptalen-7-yl)acetamide]",Days to 4× (Ave ± SE),[4]; [12],7.2 ± 0.3 days
same,Delay,[4]; [12],-0.04 days
same,Median,[4]; [12],7.3 days
same,T/C,[4]; [12],1.0
same,"Tumor growth delay, three doses of colchicine compared to a single dose",[4]; colchicine 10 mg/kg oral × 3 versus single dose,did not delay tumor growth significantly
same,Days to 4× (Ave ± SE),[4]; [13],7.7 ± 0.4 days
same,Delay,[4]; [13],0.32 days
same,Median,[4]; [13],7.6 days
same,T/C,[4]; [13],1.0
same,Effect of colchicine on the antiproliferative activity of camptothecin,[5]; both compounds (group 4) versus camptothecin alone or colchicine alone,more than additive effect
same,Delay,[5]; colchicine 10 mg/kg oral,0.02 days
same,Mean TVQT ± S.E.,[5]; colchicine 10 mg/kg oral,6.4 ± 0.3 days
same,Median (TVQT),[5]; colchicine 10 mg/kg oral,6.3 days
same,TVQT/CTVQT,[5]; colchicine 10 mg/kg oral,1.0
same,Delay,[3]; [14],3.34 days
same,Mean TVQT ± S.E.,[3]; [14],11.3 ± 0.6 days
same,Median (TVQT),[3]; [14],10.8 days
same,TVQT/CTVQT,[3]; [14],1.5
same,Effect of colchicine on the antiproliferative activity of cisplatin,[7]; both compounds (group 4) versus cisplatin alone or colchicine alone,more than additive effect
same,Delay,[7]; colchicine 10 mg/kg oral,0.02 days
same,Median (TGD),[7]; colchicine 10 mg/kg oral,6.3 days
same,TGD ± S.E.,[7]; colchicine 10 mg/kg oral,6.4 ± 0.3 days
same,TGD/CTGD,[7]; colchicine 10 mg/kg oral,1.0
same,Effect of colchicine on the antiproliferative activity of etoposide,[6]; both compounds (group 4) versus etoposide alone or colchicine alone,more than additive effect
same,Delay,[6]; colchicine 2 mg/kg i.p.,1.65 days
same,Mean TVQT ± S.E.,[6]; colchicine 2 mg/kg i.p.,9.5 ± 0.2 days
same,Median (TVQT),[6]; colchicine 2 mg/kg i.p.,9.3 days
same,TVQT/CTVQT,[6]; colchicine 2 mg/kg i.p.,1.2
same,Delay,[1]; colchicine 1 mg/kg i.p.,1.15 days
same,Mean TVQT ± S.E.,[1]; colchicine 1 mg/kg i.p.,7.2 ± 0.5 days
same,Median (TVQT),[1]; colchicine 1 mg/kg i.p.,7.2 days
same,TVQT/CTVQT,[1]; colchicine 1 mg/kg i.p.,1.1
